We go through 29 compounds from patent publication US8124629B2, “Naphthylacetic acids” (Hoffmann-La Roche Inc., priority 2008, dated 2012).

What is called IC50 is the concentration at which inhibition is half-maximal. Low values mean inhibition by little substance, high ones a need for much substance.

Each structure is given as a SMILES string.

The assay has as its target T1, human CRTH2 (Homo sapiens, UniProt Q9Y5Y4).
T1 sequence (Q9Y5Y4 1-395): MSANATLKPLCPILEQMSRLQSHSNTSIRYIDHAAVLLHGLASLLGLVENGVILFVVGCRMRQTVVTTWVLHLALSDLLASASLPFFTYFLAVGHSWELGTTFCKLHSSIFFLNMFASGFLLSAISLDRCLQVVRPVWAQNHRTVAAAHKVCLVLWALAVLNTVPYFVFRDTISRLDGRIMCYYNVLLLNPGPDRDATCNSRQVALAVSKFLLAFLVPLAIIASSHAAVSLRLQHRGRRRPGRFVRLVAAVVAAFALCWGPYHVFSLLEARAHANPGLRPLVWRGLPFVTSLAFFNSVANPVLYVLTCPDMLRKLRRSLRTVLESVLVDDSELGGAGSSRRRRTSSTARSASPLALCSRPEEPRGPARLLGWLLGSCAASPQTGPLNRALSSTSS
Put plainly: Human CRTH2 Receptor Binding Assay (whole cell, [3H]ramatroban). Also on record: expressed in transfected cells; host or cells: CHO-K1. As to conditions: CHO-K1 cells expressing human CRTH2 and G-alpha16; 20 nM [3H]ramatroban; 1 hour, room temperature. The source says:
A whole cell receptor binding assay using [^3H]ramatroban as the competing radioactive ligand was employed to evaluate the compound binding activity to human CRTH2. The radioactive ligand [^3H]ramatroban was synthesized according to Sugimoto et. al. (Eur. J. Pharmacol. 524, 30-37, 2005) to a specific activity of 42 Ci/mmol.
A cell line stably expressing human CRTH2 was established by transfecting CHO-K1 cells with two mammalian expression vectors that harbored human CRTH2 and G-alpha16 cDNAs, respectively, using FuGene® 6 transfection reagent (from Roche). Stable clones expressing CRTH2 were selected by staining each clone with BM16 (BD Pharmingen™ from BD Biosciences, a division of Becton, Dickinson and Company), which is a rat monoclonal antibody to human CRTH2. The cells were maintained as monolayer cultures in Ham's F-12 medium containing 10% fetal bovine serum, 100 units/mL penicillin, 100 μg/mL streptomycin, 2 mM glutamine, 0.5 mg/mL G418 (geneticin) for CRTH2, and 0.2 mg/mL hygromycin-B (for G-alpha 16). For whole cell receptor binding assay, the monolayer cells were rinsed once with PBS (phosphate buffered saline), dissociated using ethylenediaminetetraacetate (Versene™ EDTA from Lonza Inc.), and suspended in PBS containing 10 mM MgCl2 and 0.06% BSA (bovine serum albumin) at 1.5×10^6 cells/mL.
The binding reactions (0.2 mL) were performed in 96-well plates at room temperature in PBS containing 1.5×10^5 cells, 10 mM MgCl2, 0.06% BSA, 20 nM [^3H]ramatroban, and test compound at various concentrations. After 1 hour of binding reactions, the cells were harvested on GF™/B filter microplates (microtiter plates with embedded glass fiber from Perkin Elmer, Inc.) and washed 5 times with PBS using a Filtermate™ Harvester (a cell harvester that harvests and washes cells from microplates from PerkinElmer, Inc.). The radioactivities bound to the cells were determined using a microplate scintillation counter (TopCount® NXT, from PerkinElmer, Inc.) after adding 50 μL of Microscint™ 20 scintillation fluid (from PerkinElmer, Inc.) to each well of the filter plates. The radioactivity from non-specific binding was determined by replacing compound with 10 μM of 15(R)-15-methyl PGD2 (from Cayman Chemical Company) in the reaction mixtures. The radioactivity bound to the cells in the absence of compound (total binding) was determined by replacing compound with 0.25% of DMSO (dimethyl sulfoxide) in the reaction mixture. Specific binding data were obtained by subtracting the radioactivity of non-specific binding from each binding data.
The IC50 value is defined as the concentration of the tested compound that is required for 50% inhibition of total specific binding. In order to calculate the IC50 value, the percent inhibition data were determined for 7 concentrations for each compound. The percent inhibition for a compound at each concentration was calculated according to the following formula, [1-(specific binding in the presence of compound)/(total specific binding)]×100. The IC50 value was then obtained by fitting the percent inhibition data to a sigmoidal dose-response (4 parameter logistic) model in the XLfit® software Excel add-in program [from ID Business Solutions Ltd., model 205, where F(x)=(A+(B−A)/(1+((C/×)^D)))].
Compound `CN(C)S(=O)(=O)c1ccc(C(=O)c2cc(CC(=O)O)cc3ccccc23)cc1` [Example 1-1, [4-(4-Dimethylsulfamoyl-benzoyl)-naphthalen-2-yl]-acetic acid] returned an IC50 of 17.8 nM.
To `CCS(=O)(=O)c1ccc(C(=O)c2cc(CC(=O)O)cc3ccc(F)cc23)c(Cl)c1` [Example 1-4, [4-(2-Chloro-4-ethanesulfonyl-benzoyl)-6-fluoro-naphthalen-2-yl]-acetic acid] belongs 11.2 nM.
`O=C(O)Cc1cc(C(=O)c2ccc(S(=O)(=O)c3cccc(Cl)c3)cc2)c2cc(F)ccc2c1` [Example 1-5, {4-[4-(3-Chloro-benzenesulfonyl)-benzoyl]-6-fluoro-naphthalen-2-yl}-acetic acid] registered an IC50 of 6.2 nM.
`CS(=O)(=O)c1ccc(C(=O)c2cc(CC(=O)O)cc3ccc(F)cc23)cc1` [Example 2-1, [6-Fluoro-4-(4-methanesulfonyl-benzoyl)-naphthalen-2-yl]-acetic acid] yielded an IC50 of 4.3 nM.
The value for `COc1ccc2cc(CC(=O)O)cc(C(=O)c3ccc(S(C)(=O)=O)cc3)c2c1` [Example 2-2, [4-(4-Methanesulfonyl-benzoyl)-6-methoxy-naphthalen-2-yl]-acetic acid] was 26.4 nM; that for `CS(=O)(=O)c1ccc(C(=O)c2cc(CC(=O)O)cc3ccccc23)cc1` [Example 2-3, [4-(4-Methanesulfonyl-benzoyl)-naphthalen-2-yl]-acetic acid] was 17 nM.
Consider `CS(=O)(=O)c1ccc(C(=O)c2cc(CC(=O)O)cc3cc(F)ccc23)cc1` [Example 2-4, [7-Fluoro-4-(4-methanesulfonyl-benzoyl)-naphthalen-2-yl]-acetic acid], for which the IC50 turned out to be 40.6 nM.
`Cc1cc(S(C)(=O)=O)ccc1C(=O)c1cc(CC(=O)O)cc2ccc(F)cc12` [Example 2-5, [6-Fluoro-4-(4-methanesulfonyl-2-methyl-benzoyl)-naphthalen-2-yl]-acetic acid] returned an IC50 of 15.1 nM.
Regarding `CS(=O)(=O)c1ccc(C(=O)c2cc(CC(=O)O)cc3cc(F)c(F)cc23)cc1` [Example 2-6, [6,7-Difluoro-4-(4-methanesulfonyl-benzoyl)-naphthalen-2-yl]-acetic acid], the IC50 turned out to be 15.5 nM. This IC50 and that of the compound before are within 1.5-fold of each other.
To `CS(=O)(=O)c1ccc(C(=O)c2cc(CC(=O)O)cc3ccc(F)cc23)c(Cl)c1` [Example 2-8, [4-(2-chloro-4-methanesulfonyl-benzoyl)-6-fluoro-naphthalen-2-yl]-acetic acid] belongs 8.5 nM; to `CS(=O)(=O)c1cccc(C(=O)c2cc(CC(=O)O)cc3ccc(F)cc23)c1` [Example 2-10, [6-Fluoro-4-(3-methanesulfonyl-benzoyl)-naphthalen-2-yl]-acetic acid], 44.8 nM; to `CCS(=O)(=O)c1ccc(C(=O)c2cc(CC(=O)O)cc3ccc(F)cc23)cc1` [Example 2-13, [4-(4-Ethanesulfonyl-benzoyl)-6-fluoro-naphthalen-2-yl]-acetic acid], 3 nM.
Compound `CN(C)S(=O)(=O)c1ccc(C(=O)c2cc(CC(=O)O)cc3ccc(F)cc23)cc1` [Example 2-14, [4-(4-Dimethylsulfamoyl-benzoyl)-6-fluoro-naphthalen-2-yl]-acetic acid] returned a half-maximal inhibitory concentration (IC50) of 2.7 nM. This IC50 and that of the compound before are within 1.5-fold of each other.
To `CNS(=O)(=O)c1ccc(C(=O)c2cc(CC(=O)O)cc3ccc(F)cc23)cc1` [Example 2-15, [6-Fluoro-4-(4-methylsulfamoyl-benzoyl)-naphthalen-2-yl]-acetic acid] belongs 3.3 nM.
To `O=C(O)Cc1cc(C(=O)c2ccc(S(=O)(=O)N3CCOCC3)cc2)c2cc(F)ccc2c1` [Example 2-16, {6-Fluoro-4-[4-(morpholine-4-sulfonyl)-benzoyl]-naphthalen-2-yl}-acetic acid] belongs 3.3 nM.
In turn, `CS(=O)(=O)c1ccc(C(=O)c2cc(CC(=O)O)cc3ccc(F)cc23)c(F)c1` [Example 2-17, [6-Fluoro-4-(2-fluoro-4-methanesulfonyl-benzoyl)-naphthalen-2-yl]-acetic acid] registered an IC50 of 14.5 nM. Against the preceding compound, the IC50 is about 4.4-fold higher.
The value for `CS(=O)(=O)c1ccc(C(=O)c2cc(CC(=O)O)cc3ccc(F)cc23)cc1C(F)(F)F` [Example 2-18, [6-Fluoro-4-(4-methanesulfonyl-3-trifluoromethyl-benzoyl)-naphthalen-2-yl]-acetic acid] was 4.2 nM; that for `CCc1cc(C(=O)c2cc(CC(=O)O)cc3ccc(F)cc23)ccc1S(C)(=O)=O` [Example 2-19, [4-(3-Ethyl-4-methanesulfonyl-benzoyl)-6-fluoro-naphthalen-2-yl]-acetic acid] was 2.3 nM.
The value for `CCS(=O)(=O)c1ccc(C(=O)c2cc(CC(=O)O)cc3ccc(F)cc23)c(C)c1` [Example 2-20, [4-(4-Ethanesulfonyl-2-methyl-benzoyl)-6-fluoro-naphthalen-2-yl]-acetic acid] was 17.9 nM; that for `O=C(O)Cc1cc(C(=O)c2ccc(S(=O)(=O)N3CCCCC3)cc2)c2cc(F)ccc2c1` [Example 2-21, {6-Fluoro-4-[4-(piperidine-1-sulfonyl)-benzoyl]-naphthalen-2-yl}-acetic acid] was 3.8 nM.
`CCN(CC)S(=O)(=O)c1ccc(C(=O)c2cc(CC(=O)O)cc3ccc(F)cc23)cc1` [Example 2-22, [4-(4-Diethylsulfamoyl-benzoyl)-6-fluoro-naphthalen-2-yl]-acetic acid] displayed a concentration for half-maximal inhibition (IC50) of 2.5 nM. Compared with the last compound, the IC50 is about 1.5-fold lower.
In turn, `Cc1cc(S(=O)(=O)N2CCOCC2)ccc1C(=O)c1cc(CC(=O)O)cc2ccc(F)cc12` [Example 2-23, {6-Fluoro-4-[2-methyl-4-(morpholine-4-sulfonyl)-benzoyl]-naphthalen-2-yl}-acetic acid] came in with an IC50 of 3.7 nM.
Compound `Cc1cc(S(=O)(=O)N(C)C)ccc1C(=O)c1cc(CC(=O)O)cc2ccc(F)cc12` [Example 2-24, [4-(4-Dimethylsulfamoyl-2-methyl-benzoyl)-6-fluoro-naphthalen-2-yl]-acetic acid] yielded an IC50 of 6.9 nM.
To `CNS(=O)(=O)c1ccc(C(=O)c2cc(CC(=O)O)cc3ccc(F)cc23)c(C)c1` [Example 2-25, [6-Fluoro-4-(2-methyl-4-methylsulfamoyl-benzoyl)-naphthalen-2-yl]-acetic acid] belongs 8.9 nM; to `O=C(O)Cc1cc(C(=O)c2ccc(S(=O)(=O)N3CCN(c4ccccc4F)CC3)cc2)c2cc(F)ccc2c1` [Example 2-26, (6-Fluoro-4-{4-[4-(2-fluoro-phenyl)-piperazine-1-sulfonyl]-benzoyl}-naphthalen-2-yl)-acetic acid], 7 nM.
Take `CS(=O)(=O)c1ccc(C(=O)c2cc(CC(=O)O)cc3ccc(Cl)cc23)cc1` [Example 2-27, [6-Chloro-4-(4-methanesulfonyl-benzoyl)-naphthalen-2-yl]-acetic acid]: the concentration for half-maximal inhibition (IC50) came out at 6.4 nM.
To `Cc1ccc2cc(CC(=O)O)cc(C(=O)c3ccc(S(C)(=O)=O)cc3)c2c1` [Example 2-28, [4-(4-Methanesulfonyl-benzoyl)-6-methyl-naphthalen-2-yl]-acetic acid] belongs 21.3 nM; to `CS(=O)(=O)c1cc(C(=O)c2cc(CC(=O)O)cc3ccc(F)cc23)ccc1F` [Example 2-31, [6-Fluoro-4-(4-fluoro-3-methanesulfonyl-benzoyl)-naphthalen-2-yl]-acetic acid], 103 nM; to `CS(=O)(=O)c1ccc(C(=O)c2cc(CC(=O)O)cc3cc(C(F)(F)F)ccc23)cc1` [Example 2-32, [4-(4-Methanesulfonyl-benzoyl)-7-trifluoromethyl-naphthalen-2-yl]-acetic acid], 272 nM.
